In patent US8119681B2, “2-[1-phenyl-5-hydroxy or methoxy-4alpha-methyl-hexahydrocyclopenta [ƒ]indazole-5-YL]ethyl phenyl derivatives as glucocorticoid receptor ligands” (Merck Sharp & Dohme Corp., priority 2006, dated 2012):

Key:
[1] = biological target: T1, human GR (Homo sapiens, UniProt P04150); assay: Transrepression Assay (GITAR), TNFα-β-lactamase reporter gene in U937 cells; type: cell-based; parameters: U937 cells contain an endogenous glucocorticoid receptor (GR); endogenous in cells; host or cells: U937 cells stably transfected with the TNF-α promoter/β-lactamase reporter only; details: for EC50: IP = inflection point; for GITAR > GRAMM % SEP: separation of GITAR Emax over GRAMMER Emax; for Emax: U-937
T1 sequence (P04150 1-777): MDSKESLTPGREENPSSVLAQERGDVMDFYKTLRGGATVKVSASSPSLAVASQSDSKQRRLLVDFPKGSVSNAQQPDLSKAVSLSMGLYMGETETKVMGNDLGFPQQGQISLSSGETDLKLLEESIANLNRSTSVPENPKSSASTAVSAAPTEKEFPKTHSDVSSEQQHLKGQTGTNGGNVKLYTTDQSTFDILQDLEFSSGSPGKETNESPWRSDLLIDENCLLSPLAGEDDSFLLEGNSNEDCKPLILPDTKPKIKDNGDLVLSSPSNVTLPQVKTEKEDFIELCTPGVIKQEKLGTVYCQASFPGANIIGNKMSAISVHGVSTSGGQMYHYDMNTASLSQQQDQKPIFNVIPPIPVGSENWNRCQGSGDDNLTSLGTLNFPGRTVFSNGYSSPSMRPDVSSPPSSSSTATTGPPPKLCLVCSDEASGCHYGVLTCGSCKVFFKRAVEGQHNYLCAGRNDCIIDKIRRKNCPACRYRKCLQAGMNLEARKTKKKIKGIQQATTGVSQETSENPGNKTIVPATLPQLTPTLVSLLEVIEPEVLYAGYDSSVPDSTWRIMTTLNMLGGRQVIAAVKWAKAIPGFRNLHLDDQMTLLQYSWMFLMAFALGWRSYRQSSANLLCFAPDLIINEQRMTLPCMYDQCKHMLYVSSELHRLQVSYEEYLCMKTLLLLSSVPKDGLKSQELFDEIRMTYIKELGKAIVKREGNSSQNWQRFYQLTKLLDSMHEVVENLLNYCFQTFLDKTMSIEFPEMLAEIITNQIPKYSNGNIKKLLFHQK
Summary of the method: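 Reporter readout used CCF2-AM loading for 70–90 min at room temperature after overnight (~18 h, 37 °C) PMA (5 ng/ml final) and LPS (100 ng/ml final) stimulation of compound-treated (30–45 min) TNFα-β-lactamase U937 cells expressing native GR. Activity was normalised to 100 nM dexamethasone repression.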

[2] = biological target: T1, human GR; assay: Trans-Activation Modulation of Glucocorticoid Receptor (GRAMMER), MMTV-LUC reporter gene; type: cell-based; parameters: endogenous in cells; details: for Emax: A549; for EC50: A549 cells, IP = inflection point
[3] = Table 2, U937 cells, read-out: Transactiviation U937 Cells GITAR IP
[4] = Table 2, U937 cells, activity repressed by 100 nM dexamethasone = 100%, read-out: Transactiviation U937 Cells GITAR Emax (%)
[5] = read-out: Transactiviation A549 Cells GRAMMER Emax (%)
[6] = Table 2, read-out: Transactiviation A549 Cells GRAMMER IP
[7] = Table 1, U937 cells, read-out: Transrepression U937 Cells GITAR IP
[8] = 100 nM dexamethasone = 100% activity, read-out: maximal activity in the transrepression assay
[9] = Table 1, U937 cells, activity repressed by 100 nM dexamethasone = 100%, read-out: Transrepression U937 Cells GITAR Emax (%)
[10] = read-out: Transactivation A549 Cells GRAMMER Emax (%)
[11] = Table 1, read-out: Transactivation A549 Cells GRAMMER IP

| Structure (SMILES) | EC50 [1, 3] | GITAR > GRAMM % SEP ([1]; Table 2) | Emax [1, 4] | Emax [2, 5] | EC50 [2, 6] | EC50 [1, 7] | GITAR > GRAMM % SEP ([1]; Table 1) | Emax [1, 8] | Emax [1, 9] | Emax [2, 10] | EC50 [2, 11] |
| --- | --- | --- | --- | --- | --- | --- | --- | --- | --- | --- | --- |
| COc1ccccc1CC[C@]1(O)CCC2=Cc3c(cnn3-c3ccc(F)cc3)C[C@@]21C [Example 58 WO 2004/075840 A2, reference compound] | 642 nM | 14% | 42% | 28% | 397 nM |  |  |  |  |  |  |
| CC(C)(C)NC(=O)c1c(F)cccc1CC[C@]1(O)CCC2=Cc3c(cnn3-c3ccc(F)cc3)C[C@@]21C [Example 59, N-(tert-butyl)-2-fluoro-6-{2-[(4αS,5R)-1-(4-fluorophenyl)-5-hydroxy-4α-methyl-1,4,4α,5,6,7-hexahydrocyclopenta[f]indazol-5-yl]ethyl}benzamide] |  |  |  |  |  | 95 nM | 37% | 5 to 100% | 77% | 40% | 108 nM |
| CC(C)CNC(=O)c1c(F)cccc1CC[C@]1(O)CCC2=Cc3c(cnn3-c3ccc(F)cc3)C[C@@]21C [Example 61, 2-fluoro-6-{2-[(4αS,5R)-1-(4-fluorophenyl)-5-hydroxy-4α-methyl-1,4,4α,5,6,7-hexahydrocyclopenta[f]indazol-5-yl]ethyl}-N-isobutylbenzamide] |  |  |  |  |  | 83 nM | 44% | 5 to 100% | 79% | 35% | 86 nM |
| CC(C)(C)NC(=O)c1ccccc1CC[C@]1(O)CCC2=Cc3c(cnn3-c3ccc(F)cc3)C[C@@]21C [Example 62, N-(tert-butyl)-2-{2-[(4αS,5R)-1-(4-fluorophenyl)-5-hydroxy-4α-methyl-1,4,4α,5,6,7-hexahydrocyclopenta[f]indazol-5-yl]ethyl}benzamide] |  |  |  |  |  | 246 nM | 56% | 5 to 100% | 79% | 23% | 212 nM |
| C[C@]12Cc3cnn(-c4ccc(F)cc4)c3C=C1CC[C@@]2(O)CCc1ccccc1F [Example 70 WO 2004/075840 A2, reference compound] | 175 nM | −62% | 83% | 144% | 215 nM |  |  |  |  |  |  |
| CC(C)S(=O)(=O)NCc1c(F)cccc1CC[C@]1(O)CCC2=Cc3c(cnn3-c3ccc(F)cc3)C[C@@]21C [Example 83, N-(2-fluoro-6-{2-[(4αS,5R)-1-(4-fluorophenyl)-5-hydroxy-4α-methyl-1,4,4α,5,6,7-hexahydrocyclopenta[f]indazol-5-yl]ethyl}benzyl)propane-2-sulfonamide] |  |  |  |  |  | 94 nM | 33% | 5 to 100% | 54% | 21% | 70 nM |
| CCS(=O)(=O)NCc1c(F)cccc1CC[C@]1(O)CCC2=Cc3c(cnn3-c3ccc(F)cc3)C[C@@]21C [Example 84, N-(2-fluoro-6-{2-[(4αS,5R)-1-(4-fluorophenyl)-5-hydroxy-4α-methyl-1,4,4α,5,6,7-hexahydrocyclopenta[f]indazol-5-yl]ethyl}benzyl)ethanesulfonamide] |  |  |  |  |  | 96 nM | 37% | 5 to 100% | 60% | 23% | 50 nM |
| C[C@]12Cc3cnn(-c4ccc(F)cc4)c3C=C1CC[C@@]2(O)CCc1cccc(F)c1CNS(=O)(=O)C(Cl)Cl [Example 85, 1,1-dichloro-N-(2-fluoro-6-{2-[(4αS,5R)-1-(4-fluorophenyl)-5-hydroxy-4α-methyl-1,4,4α,5,6,7-hexahydrocyclopenta[f]indazol-5-yl]ethyl}benzyl)methanesulfonamide] |  |  |  |  |  | 182 nM | 44% | 5 to 100% | 63% | 19% | 94 nM |
| C[C@]12Cc3cnn(-c4ccc(F)cc4)c3C=C1CC[C@@]2(O)CCc1cccc(F)c1CNS(=O)(=O)CC(F)(F)F [Example 86, 2,2,2-trifluoro-N-(2-fluoro-6-{2-[(4αS,5R)-1-(4-fluorophenyl)-5-hydroxy-4α-methyl-1,4,4α,5,6,7-hexahydrocyclopenta[f]indazol-5-yl]ethyl}benzyl)ethanesulfonamide] |  |  |  |  |  | 246 nM | 53% | 5 to 100% | 66% | 13% | 211 nM |
| C[C@]12Cc3cnn(-c4ccc(F)cc4)c3C=C1CC[C@@]2(O)CCc1cccc(F)c1CNS(=O)(=O)C1CC1 [Example 88, N-(2-fluoro-6-{2-[(4αS,5R)-1-(4-fluorophenyl)-5-hydroxy-4α-methyl-1,4,4α,5,6,7-hexahydrocyclopenta[f]indazol-5-yl]ethyl}benzyl)cyclopropanesulfonamide] |  |  |  |  |  | 90 nM | 37% | 5 to 100% | 69% | 32% | 53 nM |
| CN(C)S(=O)(=O)NCc1c(F)cccc1CC[C@]1(O)CCC2=Cc3c(cnn3-c3ccc(F)cc3)C[C@@]21C [Example 89, N′-(2-fluoro-6-{2-[(4αS,5R)-1-(4-fluorophenyl)-5-hydroxy-4α-methyl-1,4,4α,5,6,7-hexahydrocyclopenta[f]indazol-5-yl]ethyl}benzyl)-N,N-dimethylsulfamide] |  |  |  |  |  | 64 nM | 50% | 5 to 100% | 70% | 20% | 43 nM |
| C[C@]12Cc3cnn(-c4ccc(F)cc4)c3C=C1CC[C@@]2(O)CCc1ccccc1C1(NS(=O)(=O)C2CC2)CC1 [Example 91, N-[1-(2-{2-[(4αS,5R)-1-(4-fluorophenyl)-5-hydroxy-4α-methyl-1,4,4α,5,6,7-hexahydrocyclopenta[f]indazol-5-yl]ethyl}phenyl)cyclopropyl]cyclopropanesulfonamide] |  |  |  |  |  | 231 nM | 26% |  | 72% | 46% | 121 nM |
| C[C@]12Cc3cnn(-c4ccc(F)cc4)c3C=C1CC[C@@]2(O)CCc1ccccc1CC(N)=O [Example 107, 2-(2-{2-[(4αS,5R)-1-(4-fluorophenyl)-5-hydroxy-4α-methyl-1,4,4α,5,6,7-hexahydrocyclopenta[f]indazol-5-yl]ethyl}phenyl)acetamide] |  |  |  |  |  | 217 nM | 29% | 5 to 100% | 66% | 37% | 261 nM |
| CN(C)S(=O)(=O)Nc1c(F)cccc1CC[C@]1(O)CCC2=Cc3c(cnn3-c3ccc(F)cc3)C[C@@]21C [Example 113, N′-(2-fluoro-6-{2-[(4αS,5R)-1-(4-fluorophenyl)-5-hydroxy-4α-methyl-1,4,4α,5,6,7-hexahydrocyclopenta[f]indazol-5-yl]ethyl}phenyl)-N,N-dimethylsulfamide] |  |  |  |  |  | 207 nM | 39% | 5 to 100% | 71% | 32% | 205 nM |
| CCS(=O)(=O)Nc1ccccc1CC[C@]1(O)CCC2=Cc3c(cnn3-c3ccc(F)cc3)C[C@@]21C [Example 114, N-(2-{2-[(4αS,5R)-1-(4-fluorophenyl)-5-hydroxy-4α-methyl-1,4,4α,5,6,7-hexahydrocyclopenta[f]indazol-5-yl]ethyl}phenyl)ethanesulfonamide] |  |  |  |  |  | 199 nM | 34% | 5 to 100% | 78% | 43% | 221 nM |
| CN(C)S(=O)(=O)c1ccccc1CC[C@]1(O)CCC2=Cc3c(cnn3-c3ccc(F)cc3)C[C@@]21C [Example 138, 2-{2-[(4αS,5R)-1-(4-fluorophenyl)-5-hydroxy-4α-methyl-1,4,4α,5,6,7-hexahydrocyclopenta[f]indazol-5-yl]ethyl}-N,N-dimethylbenzenesulfonamide] |  |  |  |  |  | 212 nM | 17% | 5 to 100% | 72% | 55% | 137 nM |
